Melting point data for 2 molecules are collected here from US6818648B2, “Aryloxy- and arylthiosubstituted pyrimidines and triazines and derivatives thereof” (Bristol-Myers Squibb Pharma, priority 1996, dated 2004).

One may read the melting point as the temperature, or range, at which the solid turns liquid.

Regarding `C=C(C)c1cc(Br)c(Oc2nc(C)nc(N3CCOCC3)n2)c(OC)c1` [Example 5, 2-[2-bromo-6-methoxy-4-(1-methylethenyl)phenoxy]-4-methyl-6-(4-morpholinyl)-1,3,5-triazine], the melting point lay in the range of 63 to 67 °C.

On to `C=C(C)c1cc(Br)c(Oc2nc(C)nc(N3CCOCC3)n2)c(OC)c1` [Example 6, 2-[2-bromo-6-methoxy-4-(1-methylethenyl)phenoxy]-4-methyl-6-(4-morpholinyl)-1,3,5-triazine], for which the melting point lay within 131 to 133 °C.
